# Patent US20260263429A1, “INHIBITORS OF CA 2+/CALMODULIN-DEPENDENT PROTEIN KINASE II (CAMKII) THAT DO NOT INHIBIT LONG-TERM POTENTIATION (LTP) INDUCTION AND THERAPEUTIC USES THEREOF” (The Regents of the University of Colorado, A Body Corporate, priority 2023, published 2026)
# Experiments:
# CaMKII F89G = CaMKII F89G (Homo sapiens, UniProt Q9UQM7, F89G); experiment: In vitro kinase assay with CaMKII F89G mutant; type: biochemical; conditions: 10 μM NM-PP1
# Procedure: This conclusion also predicts that the LTP stimulus-induced movement of CaMKII to excitatory synapses should be (i) impaired in the CaMKII F89G mutant; but (ii) normalized by pharmacogenetic rescue with NM-PP1. Indeed, both predictions were observed experimentally (FIGS. 4D-4E).
# In vitro phosphorylation assays. CaMKII-mediated phosphorylation of GluA1 S831 was measured by in vitro kinase reaction with purified GST-GluA1 c-terminal tail. Reactions contained 40 nM CaMKII (or water for negative controls), 1 μM GST-GluA1, 50 mM PIPES pH 7.1, 2 mM CaCl2), 10 mM MgCl2, 1 μM calmodulin, 1-4 mM ATP, and 1 PM of okadaic acid. Reactions were done at 30° C. for 20 s; reactions were stopped by adding SDS-loading buffer and incubation in a boiling water bath for 5 min. GST, phospho-S831, CaMKII, phospho-T286, or phospho-S1303 were detected in the samples by immunoblot analysis.
# [1] = tested on: CaMKIIα binding to GST-GluN2B-c
# Procedure: (§1) In a series of exemplary methods, an in vitro kinase assay was used where purified CaMKIIα is incubated at 30° C. with GST-GluA1 alongside ATP. CaMKIIα normally phosphorylates S831 on the GluA1 subunit and this phosphorylation can be measured as a readout of CaMKIIα enzymatic activity (see e.g., FIG. 8B). […] In another exemplary method, binding of purified CaMKIIα to immobilized GST-GluN2B-c was induced by Ca^2+/CaM in the presence of a vehicle (none), 4 mM ADP or with […] AS105. […] At the same time, two exemplary methods were performed to observe ionomycin or chemical LTP (cLTP) induced co-localization of CaMKII and GluN2B either in HEK293 cells co-expressing GFP-CaMKII and mCherry-2BC or dissociated rat hippocampal cultures expressing GFP-CaMKII and mCh-PSD95 intrabody. HEK293 cells, incubating with vehicle or 10 μM AS105, were subjected to ionomycin. Hippocampal cultures, also incubating with either vehicle or 10 μM AS105, were treated with a chemical LTP (cLTP) stimulus (e.g., 100 μM glutamate, 10 μM glycine for 45 seconds). Confocal microscopy images were taken before and after each stimulus.
# One possible mechanism by which AS283 could enhance GluN2B binding more than ATP is by suppressing CaMKII-mediated phosphorylation of GluN2B at S1303, as this phosphorylation within the CaMKII binding site on GluN2B reduces CaMKII binding.
# Bound CaMKII was measured via immunoblot.
# [2] = molecular target: T1, CaMKII/GluN2B co-localization in HEK293 cells (Homo sapiens, UniProt Q9UQM7); experiment: Ionomycin-induced co-localization of GFP-CaMKII and mCherry-2BC in HEK293 cells; type: cell-based; conditions: 10 μM inhibitor
# T1 construct: expressed in transfected cells; host or cells: HEK293 cells
# Procedure: as §1
# [3] = tested on: GFP-CaMKII synaptic enrichment (mCh-PSD95 intrabody); experiment: cLTP-induced CaMKII movement to excitatory synapses in dissociated rat hippocampal cultures; type: cell-based; conditions: 10 μM inhibitor; cLTP 100 μM glutamate, 10 μM glycine, 45 seconds
# [4] = tested on: CaMKII movement to excitatory synapses; experiment: cLTP-induced CaMKII movement to excitatory synapses in the presence of soluble oligomeric Aβ; type: cell-based; conditions: 0.5 μM Aβ, inhibitor 10 μM, 45 minutes prior to cLTP
# T1 sequence (Q9UQM7 whole entry): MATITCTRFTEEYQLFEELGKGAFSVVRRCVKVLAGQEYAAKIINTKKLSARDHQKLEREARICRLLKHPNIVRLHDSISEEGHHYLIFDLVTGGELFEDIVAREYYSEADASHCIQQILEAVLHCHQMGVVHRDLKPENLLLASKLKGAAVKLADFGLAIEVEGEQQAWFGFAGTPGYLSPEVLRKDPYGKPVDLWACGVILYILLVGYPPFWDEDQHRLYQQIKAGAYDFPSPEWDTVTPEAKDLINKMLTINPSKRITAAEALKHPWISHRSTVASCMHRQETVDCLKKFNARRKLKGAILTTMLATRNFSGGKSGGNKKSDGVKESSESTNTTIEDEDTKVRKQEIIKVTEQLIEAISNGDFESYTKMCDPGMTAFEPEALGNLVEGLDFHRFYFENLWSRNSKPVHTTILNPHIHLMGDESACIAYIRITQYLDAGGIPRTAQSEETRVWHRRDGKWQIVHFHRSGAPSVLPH
# T1 sequence (Q13224 836-1484 S1303A partner limits assumed): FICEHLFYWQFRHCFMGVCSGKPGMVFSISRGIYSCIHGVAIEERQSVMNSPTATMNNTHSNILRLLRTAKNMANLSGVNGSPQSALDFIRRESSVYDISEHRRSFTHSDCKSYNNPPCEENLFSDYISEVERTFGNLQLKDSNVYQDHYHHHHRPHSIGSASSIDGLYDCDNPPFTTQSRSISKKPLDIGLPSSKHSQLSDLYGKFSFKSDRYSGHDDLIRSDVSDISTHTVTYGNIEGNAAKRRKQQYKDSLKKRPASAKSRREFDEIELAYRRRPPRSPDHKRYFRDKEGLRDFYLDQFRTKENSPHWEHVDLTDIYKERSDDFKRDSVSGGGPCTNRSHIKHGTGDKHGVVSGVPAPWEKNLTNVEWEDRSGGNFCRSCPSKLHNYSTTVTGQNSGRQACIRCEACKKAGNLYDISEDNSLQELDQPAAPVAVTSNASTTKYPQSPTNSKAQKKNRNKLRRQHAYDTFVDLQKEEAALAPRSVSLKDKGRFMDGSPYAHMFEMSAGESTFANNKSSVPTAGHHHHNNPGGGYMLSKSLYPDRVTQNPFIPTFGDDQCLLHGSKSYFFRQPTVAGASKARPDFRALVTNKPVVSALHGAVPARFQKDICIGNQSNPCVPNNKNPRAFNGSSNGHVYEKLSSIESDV
Compound,residual enzymatic activity of CaMKII F89G (CaMKII F89G),"CaMKII binding to immobilized GluN2B compared to a control without nucleotide or inhibitor ([1]; 10 μM inhibitor, EGTA wash, immunoblot)","CaMKII binding to GluN2B in the presence of ADP ([1]; 1 mM ADP, AS283 10 μM)",Ca2+/CaM-induced CaMKII binding to immobilized WT GluN2B when ATP was substituted ([1]; AS283 versus 1 mM ATP),enhancing effect on CaMKII binding to GluN2B S1303A mutant compared with ATP ([1]; phosphorylation-incompetent GluN2B S1303A),ionomycin-induced CaMKII/GluN2B co-localization in HEK293 cells [2],cLTP-induced CaMKII co-localization/movement to excitatory synapses in hippocampal neurons [3],rescue of Aβ-blocked cLTP-induced movement of CaMKII to the synapses [4]
CC(C)(C)n1nc(Cc2cccc3ccccc23)c2c(N)ncnc21 [NM-PP1],still further reduced,,,,,,,
NCCNc1cccc(-c2ccnc3[nH]c4ccccc4c23)c1 [AS283],,increased CaMKII binding,did not inhibit CaMKII binding to GluN2B,significantly enhanced,indistinguishable,failed to inhibit CaMKII binding to GluN2B,failed to inhibit CaMKII binding to GluN2B,rescued
